We go through 21 molecules from patent publication US20160115186A1, “PHOSPHORIC ACID/PHOSPHONIC ACID DERIVATIVES AND MEDICINAL USES THEREOF” (priority 2013, published 2016).

Where two headings read alike, the source gives them in different places. Some results are limits rather than exact numbers.

Series [1] is described as follows: in vitro. It is filed as cell-based. To be noted: human; Hep G 2.2.15 cells, MTT, day 3 post-dosing. The protocol: Hep G 2.2.15 cells were inoculated in a 96-well plate (with cell number being 5.5×10^4) to continually cultivate for 3 days, new culture solutions containing different concentrations of drugs were added, and 3 wells were provided in parallel; at day 3 post-dosing, MTT was added until 7.5 mg/ml, and continued to cultivate for 2 hours, the supernate was discarded, isopropanol containing 10% […] was added, 120 μl/well, and 0.4 μl/well was further added.

Series [2] concerns liver damage in mice caused by D-aminogalactose. It is filed as in vivo, Kunmin mice. Conditions: serum, D-aminogalactose 750 mg/kg model, 0.2 mmol oral twice, 24 hours after second administration. The protocol:
Kunmin mice (20 g) were grouped randomly (8/group). 0.2 mmol of a compound to be tested was orally administered; after 2 hours post-dosing, D-aminogalactose was intraperitoneally injected at a dose of 750 mg/kg to prepare a liver damage model, and the normal saline was subcutaneously injected as a normal control group. After modeling for 12 hours, 0.2 mmol of the compound to be tested was orally administrated again. After 24 hours from the second administration, blood samples were collected to take serum specimen so as to determine ALT, AST.

Series [3] relates to HBV. The series is described as follows: microbe, parasite or virus in culture. The series is classed as cell-based. Here is the method: At day 10 post-dosing, 100 μl supernate was taken and the content of HBV DNA was measured by the method of Quantitative PCR to calculate IC50 value.
Series [4] deals with DHBV. The series is described as follows: animal or person. To be noted: Duck hepatitis B virus, po, 336 h; for inhibition in vivo at 1 mg/kg: serum DHBV DNA, 1.0 mg/kg intragastric once a day for 14 days. It is filed as in vivo, sheldrakes. Here is the method: The sheldrakes infected by vertical transmission and being positive in DHBV DNA detection were grouped randomly, 5/group. Water and different doses of the compound to be tested were intragastrically administrated, respectively, once a day, for 14 days. Venous blood samples were collected pre-dosing, at day 14 of dosing and at day 7 after drug withdrawal, the serum DHBV DNA content was measured using external standard TaqMan real-time fluorescence PCR method, and the inhibition ratio was calculated, as compared to the solvent group.

The subject of series [5] is liver damage in mice caused by CCl4. The series is classed as in vivo, Kunmin mice. To be noted: serum, CCl4 model, 0.2 mmol oral twice, 24 hours after second administration. The protocol: Kunmin mice (20 g) were grouped randomly (8/group). 0.2 mmol of a compound to be tested was orally administered; after 1 hour post-dosing, a 0.1% peanut oil solution of CCl4 was subcutaneously injected (10 mL/kg), to prepare a liver damage model; the normal saline was injected as a normal control group. After modeling for 12 hours, 0.2 mmol of the compound to be tested was orally administrated again. After 24 hours from the second administration, blood samples were collected to take serum specimen so as to determine ALT, AST.

Where [6] appears, read: Hepatitis B virus, HepG2.2.15, 240 h, Hep G 2.2.15 cells, HBV DNA in supernate at day 10 post-dosing, read-out: IC50.
[7] abbreviates: read-out: Inhibition ratio (%) Day 14 of dosing.
The mark [8] stands for this setting: read-out: Inhibition ratio (%) day 7 after drug withdrawal.
The mark [9] stands for this setting: Hepatitis B virus, HepG2.2.15, 240 h.

Broadly, the CC50 is the concentration at which the toxic effect on the cells reaches its halfway point. A lower CC50 goes with harm at low concentration. One may read the IC50 as the concentration at which inhibition is half-maximal. For `C=C1[C@H](CO[P@@](=O)(N[C@@H](C)C(=O)OC(C)C)Oc2ccccc2)[C@@H](O)C[C@@H]1n1cnc2c(=O)[nH]c(N)nc21` [i-5, 2-amino-1,9-dihydro-9-[(1S,3R,4S)-4-hydroxyl-3-((S)—((S)-1-isopropoxycarbonylethylamino-phenoxy-phosphoryl)-oxymethyl)-2-methylenecyclopentyl]-6H-purin-6-one, reference compound], the 50% cytotoxic concentration (CC50) in series [1] was 193 µM. Moreover, the ALT in series [2] is recorded as 1512 U/L; in series [5], 551 U/L. Moreover, the AST in series [2] was 1646 U/L; in series [5] it was 641 U/L. For the same molecule, the half-maximal inhibitory concentration (IC50) in series [3] (setting [6]) worked out at 0.012 µM. Further, the inhibition in vivo at 1 mg/kg in series [4] (setting [7]) amounted to 88.9%; in series [4] (setting [8]), 15.7%.

In the case of `COc1ccc(Sc2nc(N)nc3c2ncn3CCOCP(=O)(N[C@H](C)C(=O)OC(C)C)Oc2ccc3c(c2)OCO3)cc1` (stereo partly drawn) [Compound I26, 2-amino-6-(4-methoxylphenyl)thio-9-[[[(((benzo[1,3]dioxolan-5-yl)-oxyl)-1-isopropyloxylcarbonylethylamino)-phosphonyl]-methoxyl]-ethyl]-purine], the cytotoxic concentration (CC50) at 3 days in series [1] is greater than 200 µM. Also, the ALT in series [2] amounted to 212 U/L; in series [5], 521 U/L. The AST stood at 586 U/L in series [2] and 363 U/L in series [5]. In series [3] (setting [9]), this molecule registered an IC50 of 0.039 µM. The results for the inhibition in vivo at 25 mg/kg in series [4] (setting [7]) and in series [4] (setting [8]) were 93.5% and 11.5%, respectively.

Molecule `Nc1ncnc2c1ncn2CCOCP(=O)(Oc1ccc2c(c1)OCCO2)Oc1ccc2c(c1)OCCO2` [Compound I4, 9-[[[bis-((benzo[1,4]dioxan-6-yl)-oxyl)-phosphonyl]-methoxyl]-ethyl]-adenine] returned a CC50 at 3 days in series [1] greater than 200 µM. Besides, in series [3] (setting [9]), the IC50 was 3.19 µM.

With `C=C1[C@H](CO[P@](=O)(N[C@@H](C)C(=O)OC(C)C)Oc2cccc3c2OCO3)[C@@H](O)C[C@@H]1n1cnc2c(=O)[nH]c(N)nc21` [Compound I39-a], the IC50 in series [3] (setting [6]) is 0.017 µM.

In turn, `Nc1ncnc2c1ncn2CCOCP(=O)(Oc1ccc2c(c1)OCO2)Oc1ccc2c(c1)OCO2` [Compound I2, 9-[[[bis-((benzo[1,3]dioxolan-5-yl)-oxyl)-phosphonyl]-methoxyl]-ethyl]-adenine] came in with a CC50 at 3 days in series [1] greater than 200 µM. In series [2], this molecule came in with an ALT of 514 U/L and an AST of 560 U/L. The molecule also registered a half-maximal inhibitory concentration (IC50) in series [3] (setting [9]) of 0.47 µM. Also, in series [5], the ALT came to 435 U/L and the AST was determined as 764 U/L.

With `C=C1[C@H](COP(=O)(Oc2ccc3c(c2)OCO3)Oc2ccc3c(c2)OCO3)[C@@H](O)C[C@@H]1n1cnc2c(=O)[nH]c(N)nc21` [Compound I15, 9-[(1S,3R,4S)-4-hydroxyl-3-(bis-(((benzo[1,3]dioxolan-5-yl)-oxyl)-phosphoryl)-oxymethyl)-2-methylenecyclopentyl]-guanine], the CC50 at 3 days in series [1] is greater than 200 µM. Besides, the IC50 in series [3] (setting [9]) is 0.12 µM.

On to `Nc1ncnc2c1ncn2CCOCP(=O)(Oc1cccc2c1OCCO2)Oc1cccc2c1OCCO2` [Compound I3, 9-[[[bis-((benzo[1,4]dioxan-5-yl)-oxyl)-phosphonyl]-methoxyl]-ethyl]-adenine], for which, in series [1], the CC50 at 3 days is greater than 200 µM. Half-maximal inhibition in series [3] (setting [9]) (IC50) was put at 6.07 µM.

With `Nc1ccn(C2CSC(COP(=O)(Oc3ccc4c(c3)OCO4)Oc3ccc4c(c3)OCO4)O2)c(=O)n1` (stereo not drawn) [Compound I14, 5′-bis-[((benzo[1,3]dioxolan-5-yl)-oxyl)-phosphoryl]-2′,3′-dideoxy-3′-thia-cytidine], the half-maximal cytotoxic concentration (CC50) at 3 days in series [1] was greater than 200 µM. Moreover, half-maximal inhibition in series [3] (setting [9]) (IC50) was put at 5.28 µM.

Molecule `Nc1ncnc2c1ncn2CCOCP(=O)(Oc1cccc2c1OCO2)Oc1cccc2c1OCO2` [Compound I1, 9-[[[bis-((benzo[1,3]dioxolan-4-yl)-oxyl)-phosphonyl]-methoxyl]-ethyl]-adenine] gave a half-maximal cytotoxic concentration (CC50) at 3 days in series [1] greater than 200 µM. In series [2], this molecule came in with an ALT of 679 U/L and an AST of 796 U/L. For the same molecule, the half-maximal inhibitory concentration (IC50) in series [3] (setting [9]) is 8.05 µM. In series [5], this molecule yielded an ALT of 328 U/L and an AST of 433 U/L.

Turning to `CC(C)OC(=O)[C@@H](C)NP(=O)(CO[C@H](C)Cn1cnc2c(N)ncnc21)Oc1cccc2c1OCO2` (stereo partly drawn) [Compound I24], the CC50 at 3 days in series [1] was greater than 200 µM. In series [3] (setting [9]), the IC50 was found to be 4.6 µM.

Consider `COc1nc(N)nc2c1ncn2COCCOP(=O)(Oc1ccc2c(c1)OCO2)Oc1ccc2c(c1)OCO2` [Compound I13, 2-amino-6-methoxyl-9-[[[bis-((benzo[1,3]dioxolan-5-yl)-oxyl)-phosphoryloxyl]-ethoxyl]-methyl]-purine], for which the cytotoxic concentration (CC50) at 3 days in series [1] was greater than 200 µM. This molecule also returned an IC50 in series [3] (setting [9]) of 0.29 µM.

Regarding `Nc1ccn([C@@H]2CS[C@H](CO)O2)c(=O)n1` [Lamivudine, lamivudine, reference compound], the concentration for half-maximal inhibition (IC50) in series [3] (setting [6]) was determined as 0.075 µM. Besides, the values for the inhibition in vivo at 20 mg/kg in series [4] (setting [7]) and in series [4] (setting [8]) were 76.1% and 2.35%, respectively.

`Nc1ncnc2c1ncn2CCOCP(=O)(Oc1cccc2ccccc12)Oc1cccc2ccccc12` [i-2, 9-[[bis-(naphthoxy)-phosphonyl-methoxyl]-ethyl]-adenine, reference compound] returned a half-maximal cytotoxic concentration (CC50) at 3 days in series [1] of 152 µM. In series [2], the ALT was 1374 U/L and the AST stood at 1812 U/L. For the same molecule, inhibition in series [3] (setting [9]) was half-maximal at 1.92 µM (IC50). In series [5], this molecule registered an ALT of 3482 U/L and an AST of 3660 U/L.

`Nc1nc2c(ncn2COCCOP(=O)(Oc2cccc3c2OCO3)Oc2cccc3c2OCO3)c(=O)[nH]1` [Compound I11, 9-[[[bis-((benzo[1,3]dioxolan-4-yl)-oxyl)-phosphoryloxyl]-ethoxyl]-methyl]-guanine] gave a CC50 at 3 days in series [1] greater than 200 µM. In series [3] (setting [9]), this molecule had an IC50 of 1.66 µM.

As for `C[C@H](Cn1cnc2c(N)ncnc21)OCP(=O)(Oc1ccc2c(c1)OCO2)Oc1ccc2c(c1)OCO2` [Compound I6, 9-[(R)-2-[[bis-((benzo[1,3]dioxolan-5-yl)-oxyl)-phosphonyl]-methoxyl]-propyl]-adenine], the half-maximal cytotoxic concentration (CC50) at 3 days in series [1] was greater than 200 µM. This molecule also returned an IC50 in series [3] (setting [9]) of 0.41 µM.

The molecule `Nc1nc2c(ncn2COCCOP(=O)(Oc2ccc3c(c2)OCO3)Oc2ccc3c(c2)OCO3)c(=O)[nH]1` [Compound I12, 9-[[[bis-((benzo[1,3]dioxolan-5-yl)-oxyl)-phosphoryloxyl]-ethoxyl]-methyl]-guanine] yielded a CC50 at 3 days in series [1] greater than 200 µM. In addition, it took 0.24 µM to reach half-maximal inhibition in series [3] (setting [9]) (IC50).

As for `C=C1[C@H](CO[P@@](=O)(N[C@@H](C)C(=O)OC(C)C)Oc2cccc3c2OCO3)[C@@H](O)C[C@@H]1n1cnc2c(=O)[nH]c(N)nc21` [Compound I39-b], the IC50 in series [3] (setting [6]) amounted to 0.065 µM.

For `Nc1ncnc2c1ncn2CCOCP(=O)(Oc1ccccc1)Oc1ccccc1` [i-1, 9-[[bis-(phenoxyl)-phosphonyl-methoxyl]-ethyl]-adenine, reference compound], in series [2], the ALT is 1227 U/L and the AST is listed as 1456 U/L. Besides, the IC50 in series [3] (Hep G 2.2.15 cells, HBV DNA in supernate at day 10 post-dosing, read-out: IC50) amounted to 11.3 µM. Also, in series [5], the ALT was found to be 2930 U/L and the AST is 2943 U/L.

In the case of `COC(=O)[C@@H](C)NP(=O)(CO[C@H](C)Cn1cnc2c(N)ncnc21)Oc1ccc2c(c1)OCO2` (stereo partly drawn) [Compound I19], half-maximal cytotoxicity in series [1] (CC50 at 3 days) was put at 146 µM. Besides, inhibition in series [3] (setting [9]) was half-maximal at 0.008 µM (IC50).

In turn, `CC(C)OC(=O)[C@H](NP(=O)(CO[C@H](C)Cn1cnc2c(N)ncnc21)Oc1ccc2c(c1)OCO2)C(C)C` (stereo partly drawn) [Compound I22] displayed a CC50 at 3 days in series [1] greater than 200 µM. In series [3] (setting [9]), the half-inhibitory concentration (IC50) amounted to 0.17 µM.

As for `Nc1nc2c(ncn2COCCO)c(=O)[nH]1` [Acyclovir, acyclovir, reference compound], in series [3] (setting [6]), the IC50 was determined as 25.6 µM. The inhibition in vivo at 20 mg/kg in series [4] (setting [7]) amounted to 12.5%; in series [4] (setting [8]) it was 2.64%.
